Assay results: PubChem BioAssay AID2060912 (Molecular Pharmacology Branch, DTP, NCI, 2025)

Tested on: HUVEC/MSC spheroids viability
Assay: Human HUVEC/MSC cell line growth inhibition [KRAS2];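 for viability, T/C: percent of DMSO vehicle control luminescence so 100% = untreated viability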
Conditions: for IC50: curve of first compound; for viability, T/C: stronger effect = lower value
How it was run: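 Concentration ranges start near each agent's clinical Cmax, or at 10 microM if none is established, and fall by half-log increments. These ranges are tested as single agents and combinations on endothelial/mesenchymal stem cell spheroids lacking tumour cells.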

Question: With `COC(=O)c1ccc2c(C(=Nc3ccc(N(C)C(=O)CN4CCN(C)CC4)cc3)c3ccccc3)c(O)[nH]c2c1` + COc1cc2nc(C)nc(NC(C)c3cc(N)cc(C(F)(F)F)c3)c2cc1OC1CCOC1 as the compound, how does the IC50 (second compound 0.0316 µM) read?
Answer: 949 nM

Question: What about the IC50 (second compound 0.1 µM) of the same compound?
Answer: 783 nM

Question: And the IC50 (second compound 0.316 µM)?
Answer: 551 nM

Question: And the IC50 (second compound 1 µM)?
Answer: 739 nM

Question: What about the IC50 (second compound 3.16 µM) of the same compound?
Answer: 619 nM

Question: What about the IC50 (second compound 10 µM) of the same compound?
Answer: 604 nM

Question: And the viability, T/C (second compound 0.0316 µM, first compound 0.0316 µM)?
Answer: 77.5%

Question: And the viability, T/C (second compound 0.0316 µM, first compound 0.1 µM)?
Answer: 78.8%

Question: And the viability, T/C (second compound 0.0316 µM, first compound 0.316 µM)?
Answer: 72.5%

Question: And the viability, T/C (second compound 0.0316 µM, first compound 1 µM)?
Answer: 41%

Question: And the viability, T/C (second compound 0.0316 µM, first compound 3.16 µM)?
Answer: 29.7%

Question: What about the viability, T/C (second compound 0.0316 µM, first compound 10 µM) of the same compound?
Answer: 0.31%

Question: And the viability, T/C (second compound 0.1 µM, first compound 0.0316 µM)?
Answer: 78.7%

Question: What about the viability, T/C (second compound 0.1 µM, first compound 0.1 µM) of the same compound?
Answer: 89.2%

Question: And the viability, T/C (second compound 0.1 µM, first compound 0.316 µM)?
Answer: 67.3%

Question: What about the viability, T/C (second compound 0.1 µM, first compound 1 µM) of the same compound?
Answer: 40.2%

Question: What about the viability, T/C (second compound 0.1 µM, first compound 3.16 µM) of the same compound?
Answer: 24.7%

Question: What about the viability, T/C (second compound 0.1 µM, first compound 10 µM) of the same compound?
Answer: 0.32%

Question: What about the viability, T/C (second compound 0.316 µM, first compound 0.0316 µM) of the same compound?
Answer: 72.2%

Question: What about the viability, T/C (second compound 0.316 µM, first compound 0.1 µM) of the same compound?
Answer: 83.1%

Question: And the viability, T/C (second compound 0.316 µM, first compound 0.316 µM)?
Answer: 52.7%

Question: What about the viability, T/C (second compound 0.316 µM, first compound 1 µM) of the same compound?
Answer: 39.1%

Question: And the viability, T/C (second compound 0.316 µM, first compound 3.16 µM)?
Answer: 22%

Question: And the viability, T/C (second compound 0.316 µM, first compound 10 µM)?
Answer: 0.35%

Question: What about the viability, T/C (second compound 1 µM, first compound 0.0316 µM) of the same compound?
Answer: 80.1%

Question: And the viability, T/C (second compound 1 µM, first compound 0.1 µM)?
Answer: 83.4%

Question: What about the viability, T/C (second compound 1 µM, first compound 0.316 µM) of the same compound?
Answer: 73%

Question: What about the viability, T/C (second compound 1 µM, first compound 1 µM) of the same compound?
Answer: 38.6%

Question: And the viability, T/C (second compound 1 µM, first compound 3.16 µM)?
Answer: 19.2%

Question: What about the viability, T/C (second compound 1 µM, first compound 10 µM) of the same compound?
Answer: 0.36%

Question: What about the viability, T/C (second compound 3.16 µM, first compound 0.0316 µM) of the same compound?
Answer: 59.8%

Question: And the viability, T/C (second compound 3.16 µM, first compound 0.1 µM)?
Answer: 68.5%

Question: And the viability, T/C (second compound 3.16 µM, first compound 0.316 µM)?
Answer: 62.5%

Question: And the viability, T/C (second compound 3.16 µM, first compound 1 µM)?
Answer: 40.4%

Question: And the viability, T/C (second compound 3.16 µM, first compound 3.16 µM)?
Answer: 17.2%

Question: What about the viability, T/C (second compound 3.16 µM, first compound 10 µM) of the same compound?
Answer: 0.29%

Question: And the viability, T/C (second compound 10 µM, first compound 0.0316 µM)?
Answer: 63.2%

Question: What about the viability, T/C (second compound 10 µM, first compound 0.1 µM) of the same compound?
Answer: 68%

Question: What about the viability, T/C (second compound 10 µM, first compound 0.316 µM) of the same compound?
Answer: 62.7%

Question: And the viability, T/C (second compound 10 µM, first compound 1 µM)?
Answer: 39.1%

Question: What about the viability, T/C (second compound 10 µM, first compound 3.16 µM) of the same compound?
Answer: 0.52%

Question: What about the viability, T/C (second compound 10 µM, first compound 10 µM) of the same compound?
Answer: 0.28%
